Data: patent publication US20110230465A1, “VIRAL POLYMERASE INHIBITORS” (BOEHRINGER INGLEHEIM INTERNATIONAL GMBH, priority 2009, published 2011)

Tests used:
[1] = biological target: T1, hepatitis C virus RNA dependent polymerase (NS5B) (Hepatitis C virus genotype 1b, UniProt P26663); assay: Inhibition of NS5B RNA dependent RNA polymerase activity; type: biochemical; conditions: assay of Example 158A; read-out: IC50 (nM) Ex 158A (converted)
T1 construct: the RNA dependent RNA polymerase of HCV, specifically, the enzyme NS5B encoded by HCV
Protocol: Inhibition of NS5B RNA Dependent RNA Polymerase Activity
Representative compounds of the invention are tested for inhibitory activity against the hepatitis C virus RNA dependent polymerase (NS5B), using the assay described in WO2009/018657, herein incorporated by reference.

[2] = tested on: HCV RNA replication in Huh-7 cells with a stable subgenomic HCV replicon (MP-1 cells); assay: microbe, parasite or virus in culture; type: cell-based; conditions: Hepatitis C virus, assay of Example 159A, read-out: EC50 (nM) Ex 159A (converted)

T1 sequence (P26663 2420-3010): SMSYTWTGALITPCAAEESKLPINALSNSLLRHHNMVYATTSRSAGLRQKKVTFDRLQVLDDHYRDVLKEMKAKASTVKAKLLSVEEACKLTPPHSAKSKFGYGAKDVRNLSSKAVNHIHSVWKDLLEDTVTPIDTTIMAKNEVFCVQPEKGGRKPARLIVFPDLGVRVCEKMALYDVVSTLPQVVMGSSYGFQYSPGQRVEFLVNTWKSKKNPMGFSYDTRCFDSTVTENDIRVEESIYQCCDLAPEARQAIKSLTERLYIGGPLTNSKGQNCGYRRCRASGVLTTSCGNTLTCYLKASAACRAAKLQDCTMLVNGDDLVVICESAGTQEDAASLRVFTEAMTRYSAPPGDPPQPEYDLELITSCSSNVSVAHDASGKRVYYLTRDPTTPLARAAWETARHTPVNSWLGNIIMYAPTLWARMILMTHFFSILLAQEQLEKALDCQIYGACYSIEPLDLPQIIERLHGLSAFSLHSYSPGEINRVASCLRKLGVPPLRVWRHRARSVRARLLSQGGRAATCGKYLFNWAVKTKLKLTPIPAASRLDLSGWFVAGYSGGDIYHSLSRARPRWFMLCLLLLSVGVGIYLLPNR

Structure (SMILES)	IC50 [1] [nM]	EC50 [2] [nM]
NC(=O)Cc1cccc(Oc2ccc3c(c2)c(=O)ncn3Cc2c(F)cc(F)cc2F)c1C(F)(F)F [Compound 6036]	18	60
CCNc1ccc(-c2cccc(Oc3ccc4c(c3)c(=O)ncn4[C@H](C)c3c(F)cc(F)cc3F)c2C(F)(F)F)cn1 [Compound 9001]	23	–
O=c1ncn(Cc2c(F)cc(F)cc2F)c2ccc(Oc3cccc(-c4ccc5nonc5c4)c3C(F)(F)F)cc12 [Compound 9020]	107	199
CN(C)c1cc2c(cc1Oc1ncccc1C(F)(F)F)c(=O)ncn2Cc1ccc(F)cc1F [Compound 8009]	–	> 10000
CN(C)C(=O)c1cccc(Oc2ccc3c(c2)c(=O)ncn3Cc2c(F)cc(F)cc2F)c1 [Compound 7034]	4900	5700
C[C@H](c1c(F)cc(F)cc1F)n1cnc(=O)c2cc(Oc3cccc(-c4ccc(N)nc4)c3C(F)(F)F)ccc21 [Compound 9003]	18	4
Cc1c(-c2cccc(Oc3ccc4c(c3)c(=O)ncn4Cc3c(F)cc(F)cc3F)c2C(F)(F)F)cnn1-c1ccccc1 [Compound 9019]	51	183
O=c1ncn(Cc2c(F)cc(F)cc2F)c2ccc(Oc3cccc(-c4cccc5[nH]ccc45)c3C(F)(F)F)cc12 [Compound 9016]	25	2.2
O=c1ncn(Cc2c(F)cc(F)cc2F)c2ccc(Oc3ncc(Cc4nn[nH]n4)cc3C(F)(F)F)cc12 [Compound 4020]	78	5400
N#Cc1cc(-c2cccc(Oc3ccc4c(c3)c(=O)ncn4Cc3c(F)cc(F)cc3F)c2C(F)(F)F)cnc1N [Compound 9026]	28	–
Cc1ccc(-c2ncccc2-n2cnc(=O)c3cc(Oc4ncccc4C(F)(F)F)ccc32)cc1 [Compound 3090]	130	82
O=c1ncn(Cc2ccc(F)cc2F)c2ccc(Oc3ncc(Cn4nccn4)cc3C(F)(F)F)cc12 [Compound 5001]	240	470
C[C@H](c1c(F)cc(F)cc1F)n1cnc(=O)c2cc(Oc3cccc(-c4ncc(N)cn4)c3C(F)(F)F)ccc21 [Compound 9011]	7.8	–
O=c1ncn(Cc2c(F)cc(F)cc2F)c2ccc(O[C@H]3CC[C@H](CO)CC3)cc12 [Compound 2061]	530	2500
Cc1ncccc1NC(=O)c1ccc(Oc2ccc3c(c2)c(=O)ncn3Cc2c(F)cc(F)cc2F)c(C(F)(F)F)c1 [Compound 6047]	15	10
COCCOc1ccnc(Oc2ccc3c(c2)c(=O)ncn3Cc2c(F)cc(F)cc2F)c1C(F)(F)F [Compound 4003]	67	61
CCc1nc(=O)c2cc(Oc3ncccc3C(F)(F)F)ccc2n1-c1cccnc1-c1ccc(C)cc1F [Compound 8011]	34500	4800
Cc1nc(-c2cccc(Oc3ccc4c(c3)c(=O)ncn4[C@H](C)c3c(F)cc(F)cc3F)c2C(F)(F)F)ncc1N [Compound 9025]	14	–
Cc1ccc(Cn2cnc(=O)c3cc(Oc4ncccc4C(F)(F)F)ccc32)c(-c2ccsc2)c1 [Compound 3052]	110	210
Cc1ccc(Cn2cnc(=O)c3cc(Oc4ccc(C(N)=O)cc4)ccc32)c(F)c1 [Compound 1030]	610	8500
